Experimental data: patent EP0017970A1, “Novel beta-lactam derivatives and process for production thereof” (SANRAKU-OCEAN CO., LTD., priority 1979, dated 1980)
One block for each molecule: values may come before it.

Tests used:
[1] = Test for concentration in blood (plasma of mouse, bioassay); type: in vivo; details: sc, subcutaneous, 2 mg/mouse, average on five mice; for Cmax: bioassay with Comamonas terrigena B-996, read-out: Maximum concentration; for half-life: read-out: Half period (period that elapsed until the concentration was reduced to half)
Procedure: Typical species of the compounds of formula (VI-b) were each administered subcutaneously to five mice in a dose of 2 mg. After 5 minutes from the administration, a small amount of blood was periodically drawn from the eyes of the mice into a heparinized capillary tube, and centrifuged. The concentration of the compound in the supernatant liquid (plasma) was determined by a bioassay method using Comamonas terri^gena B-996.

[2] = tested on: Staphylococcus aureus Smith strain; assay: Infection treating test (CD50); type: in vivo; details: in Mus musculus, sc, 2 h, mice infected intraperitoneally with 5 x 10^5 cells per mouse, subcutaneous injection two hours after the infection
Procedure: The in vivo activities of the compounds of formula (VI-b) were determined by using mice (five per group, male DDY mice, Shizuoka) which had been intraperitoneally infected with Staphylococcus aureus Smith strain in an amount of 5 x 10^5 cells per mouse. Two hours after the infection, an injection containing a sodium salt of each of the compounds of formula (VI-b) was subcutaneously administered to the mice.

S. aureus = assay: Disc diffusion assay in nutrient broth containing 10% horse serum; type: cell-based
From the text: The compounds of formula (I) provided by this invention show excellent antimicrobial activities in in vitro tests in horse serum as shown in Table IV below.

SMILES: CC(C)C1C(=O)N2C(C(=O)O)=C(Sc3ccncc3)CC12 (stereo not shown) [Table II r6 R1=-CH3 R2=[drawing] M=H]
Cmax [1]: 30700 ng/mL | half-life [1]: 15.2 min | ED50 [2]: 0.5 mg/kg

SMILES: CC(O)[C@H]1C(=O)N2C(C(=O)O)=C(Sc3ccncc3)C[C@H]12 (relative stereo) [Table II r7 R1=-OH R2=[drawing] M=H*]
Cmax [1]: 103000 ng/mL | half-life [1]: 18 min | ED50 [2]: 0.125 mg/kg

SMILES: CC(O)[C@H]1C(=O)N2C(C(=O)O)=C(Sc3ncccn3)C[C@H]12 (relative stereo) [Table II r12 R1=-OH R2=[drawing] M=H*]
Cmax [1]: 54000 ng/mL | half-life [1]: 25 min | ED50 [2]: 0.25 mg/kg

SMILES: CC(=O)NCCSC1=C(C(=O)O)N2C(=O)[C@H](C(C)O)[C@H]2C1 (stereo partly shown) [PS-3A.Na, 3-(2-acetamidoethylthio)-6-(1-hydroxyethyl)-7-oxo-1-azabicyclo[3.2.0]hept-2-ene-2-carboxylic acid, reference compound]
ED50 [2]: 4 mg/kg

SMILES: CCC1C(=O)N2C(C(=O)OCc3ccccc3)=C(Br)CC12 (stereo not shown) [Table IV r5 R=H X=Br M=[drawing]]
Inhibitory zone diameter (S. aureus): 30.2 mm

SMILES: CC(C)C1C(=O)N2C(C(=O)O)=C(SCCN(C)C)CC12 (stereo not shown) [R1=-CH3 R2=-CH2CH2N(CH3)2 M=H]
Cmax [1]: 22000 ng/mL | half-life [1]: 6.1 min | ED50 [2]: 2 mg/kg

SMILES: CC(O)[C@@H]1C(=O)N2C(C(=O)O)=C(Sc3ncccn3)C[C@H]12 (relative stereo) [Table II r13 R1=-OH R2=[drawing] M=H**]
Cmax [1]: 23300 ng/mL | half-life [1]: 19 min | ED50 [2]: 0.25 mg/kg

Cmax [1]: 26300 ng/mL | half-life [1]: 5 min
SMILES: CC(=O)NCCSC1=C(C(=O)O)N2C(=O)C(C(C)O)C2C1 (stereo not shown) [PS-3B.Na, 3-(2-acetamidoethylthio)-6-(1-hydroxyethyl)-7-oxo-1-azabicyclo[3.2.0]hept-2-ene-2-carboxylic acid, reference compound]

Cmax [1]: 2800 ng/mL | half-life [1]: 6 min
SMILES: CCC1C(=O)N2C(C(=O)O)=C(SCCNC(=O)Cc3ccccc3)CC12 (stereo not shown) [R1=H R2=-CH2CH2NHCOCH2-[drawing] M=Na]

Cmax [1]: 8240 ng/mL | half-life [1]: 7.2 min
SMILES: CCC1C(=O)N2C(C(=O)O)=C(SC3CCCCC3)CC12 (stereo not shown) [Table II r14 R1=H R2=[drawing] M=Na]

SMILES: CC(C)C1C(=O)N2C(C(=O)OCc3ccc([N+](=O)[O-])cc3)=C(Br)CC12 (stereo not shown) [Table IV r7 R=CH3 X=Br M=[drawing]]
Inhibitory zone diameter (S. aureus): 26.8 mm

SMILES: CCC1C(=O)N2C(C(=O)O)=C(Sc3ncccn3)CC12 (stereo not shown) [Table II r10 R1=H R2=[drawing] M=H]
Cmax [1]: 23600 ng/mL | half-life [1]: 22 min | ED50 [2]: 0.25 mg/kg

SMILES: CCC1C(=O)N2C(C(=O)O)=C(SCCNC(C)=O)CC12 (stereo not shown) [PS-5.Na, 3-(2-acetamidoethylthio)-6-ethyl-7-oxo-1-azabicyclo[3.2.0]hept-2-ene-2-carboxylic acid, reference compound]
Cmax [1]: 40000 ng/mL | half-life [1]: 7 min | ED50 [2]: 1 mg/kg

SMILES: CCC1C(=O)N2C(C(=O)OCc3ccc([N+](=O)[O-])cc3)=C(Br)CC12 (stereo not shown) [Table IV r6 R=H X=Br M=[drawing]]
Inhibitory zone diameter (S. aureus): 28.6 mm
